From patent US20090227619A1, “Harmine derivatives, intermediates used in their preparations, preparation processes and use therefo” (priority 2003, published 2009)
Like-named read-outs stand apart in the source and are kept apart here.

Tests used:
[1] = system: Lewis lung cancer; settings: Lewis lung cancer; for Body weight of the animals, end, First time / Body weight of the animals, end, Second time: ip × 10qd;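 for all read-outs here: mice implanted subcutaneously in the axilla with Lewis lung tumor cells, treated starting the following day, killed roughly three weeks after implantation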
[2] = system: PLA-801; experiment: In vitro cytotoxicity, IC50 by MTT method, PLA-801; type: cell-based; settings: PLA-801 cell strain; read-out: IC50 PLA-801
Procedure, shortened: (§1)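 MTT viability, 48 h exposure: cells 10^5/ml in RPMI1640 + 10% FBS, 37 °C/5% CO2; MTT 4 h, DMSO solubilisation, A490.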

[3] = system: CT-DNA; experiment: UV absorption spectrum method with CT-DNA; type: binding; settings: CT-DNA 40 ug/ml, compound 20 uM, 37° C. for 2 h, OD at 260 nm
Experimental: Compounds to be tested (20 uM) were added into the PE buffer solution, and its scan curve was identified by the spectrograph at a wavelength of from 200 to 400 nm. CT-DNA (40 ug/ml) and compounds to be tested (20 uM) were added into the PE buffer solution. The mixture was cultured at 37° C. for 2 h, and its scan curve was identified by the UV spectrograph at a wavelength of from 200 to 400 nm. […] After that, the OD value at 260 nm of the scan curve of the medicaments tested and that of the CT-DNA mixture OD value at 260 nm of the scan curve were calculated and compared to determine the influences of the medicaments tested on the UV absorption spectrum of the DNA molecules.

[4] = system: HepG2; experiment: In vitro cytotoxicity, IC50 by MTT method, HepG2; type: cell-based, human; settings: Homo sapiens; HepG2 cell strain; read-out: IC50 HepG2
Procedure, shortened: as §1

[5] = system: NIH3T3; experiment: In vitro cytotoxicity, IC50 by MTT method, NIH3T3; type: cell-based; settings: Mus musculus; NIH3T3 cell strain; read-out: IC50 NIH3T3
Procedure, shortened: as §1

[6] = system: S180 sarcoma; settings: S180 sarcoma; for Body weight of the animals, beginning, First time / Body weight of the animals, end, First time / Inhibition rate, First time / Weight of the tumor X ± SD, First time / Body weight of the animals, beginning, Second time / Body weight of the animals, end, Second time / Inhibition rate, Second time: ip × 10qd
[7] = system: Bel-7402; experiment: In vitro cytotoxicity, IC50 by MTT method, Bel-7402; type: cell-based; settings: Homo sapiens, Bel-7402; Bel7402 cell strain; read-out: IC50 Bel7402
Procedure, shortened: as §1

[8] = system: BGC-823; experiment: In vitro cytotoxicity, IC50 by MTT method, BGC-823; type: cell-based; settings: Homo sapiens, BGC-823; BGC823 cell strain; read-out: IC50 BGC823
Procedure, shortened: as §1

[9] = system: Lovo; experiment: In vitro cytotoxicity, IC50 by MTT method, Lovo; type: cell-based; settings: Homo sapiens; Lovo cell strain; read-out: IC50 Lovo
Procedure, shortened: as §1

[10] = in vivo; settings: both, mouse, ip
[11] = system: CT-DNA; experiment: DNA thermal denaturation, determination of ΔTm; type: binding; settings: 20 uM compound, Tm of CT-DNA alone 61° C.
Procedure, shortened: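 CT-DNA at 15 ug/ml in PE buffer (1 mM Na2HPO4, 0.1 mM EDTA, pH 7.6), heated at 0.5° C./min from 25 to 95° C. Tm taken as hyperchromic transition mid-point; ΔTm = Tm of drug-DNA complex minus Tm of DNA alone, mean of three runs.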

[12] = system: Hela; experiment: In vitro cytotoxicity, IC50 by MTT method, Hela; type: cell-based; settings: Homo sapiens; Hela cell strain; read-out: IC50 Hela
Procedure, shortened: as §1

[13] = system: Kunming mice; settings: single i.p.
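Throughout, for Death rate: acute toxicity in Kunming mice grouped by sex, one intraperitoneal dose at five graded levels in Tween-80 plus 0.5% CMC-Na, deaths monitored over two weeks.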
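Throughout, for MTD: acute toxicity in Kunming mice grouped by sex, one intraperitoneal dose at five graded levels in Tween-80 plus 0.5% CMC-Na, deaths monitored over two weeks.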

Q: For CCCCn1c2ccccc2c2cc(C(=O)O)ncc21 [Compound 36, 9-butyl-β-carboline-3-carboxylic acid], which “Body weight of the animals, end, First time” value (from here on “Body weight … end, First time”) ([1]; Dosage 50 (mg/ml)) is on record?
A: The value was 25.6 g.

Q: And the “Body weight of the animals, end, Second time” value (shortened to “Body weight … end, Second time”) ([1]; Dosage 50 (mg/ml))?
A: Its value is 25.3 g.

Q: What about the “Body weight of the animals, beginning, First time” value ([1]; Dosage 50, ip × 10qd) of the same compound?
A: The value was 18.8 g.

Q: What about the “Inhibition rate, First time” value ([1]; Dosage 50, ip × 10qd) of the same compound?
A: Its value is 31.74%.

Q: And the “Weight of the tumor X ± SD, First time” value ([1]; Dosage 50, ip × 10qd)?
A: The value was 2.00 ± 0.28 g.

Q: What about the “Body weight of the animals, beginning, Second time” value ([1]; Dosage 50, ip × 10qd) of the same compound?
A: The value was 20.1 g.

Q: And the “Inhibition rate, Second time” value ([1]; Dosage 50, ip × 10qd)?
A: The value was 31.69%.

Q: What about the “Weight of the tumor X ± SD, Second time” value ([1]; Dosage 50, ip × 10qd) of the same compound?
A: The value was 1.66 ± 0.17 g.

Q: And the “Body weight … end, First time” value ([1]; Dosage 100 (mg/ml))?
A: Its value is 25.2 g.

Q: What about the “Body weight … end, Second time” value ([1]; Dosage 100 (mg/ml)) of the same compound?
A: Its value is 25.0 g.

Q: And the “Body weight of the animals, beginning, First time” value ([1]; Dosage 100, ip × 10qd)?
A: Its value is 19.3 g.

Q: And the “Inhibition rate, First time” value ([1]; Dosage 100, ip × 10qd)?
A: The value was 41.98%.

Q: And the “Weight of the tumor X ± SD, First time” value ([1]; Dosage 100, ip × 10qd)?
A: Its value is 1.70 ± 0.17 g.

Q: And the “Body weight of the animals, beginning, Second time” value ([1]; Dosage 100, ip × 10qd)?
A: The value was 20.1 g.

Q: What about the “Inhibition rate, Second time” value ([1]; Dosage 100, ip × 10qd) of the same compound?
A: The value was 46.91%.

Q: What about the “Weight of the tumor X ± SD, Second time” value ([1]; Dosage 100, ip × 10qd) of the same compound?
A: Its value is 1.29 ± 0.13 g.

Q: What about the “Inhibition rate (%) Lewis cancer” value ([1]; comparison table 43, in vivo) of the same compound?
A: Its value is 46.91%.

Q: And the IC50 [2]?
A: The IC50 was 90 µM.

Q: What about the “Influence on the UV absorption of DNA” value [3] of the same compound?
A: Its value is “increase the UV absorption of DNA”.

Q: What about the IC50 [4] of the same compound?
A: Its IC50 is 170 µM.

Q: What about the IC50 [5] of the same compound?
A: The IC50 was 20 µM.

Q: What about the “Body weight of the animals, beginning, First time” value ([6]; Dosage 50 (mg/ml)) of the same compound?
A: Its value is 19.1 g.

Q: And the “Body weight … end, First time” value ([6]; Dosage 50 (mg/ml))?
A: Its value is 24.9 g.

Q: And the “Inhibition rate, First time” value ([6]; Dosage 50 (mg/ml))?
A: The value was 29.96%.

Q: What about the “Weight of the tumor X ± SD, First time” value ([6]; Dosage 50 (mg/ml)) of the same compound?
A: The value was 1.87 ± 0.16 g.

Q: And the “Body weight of the animals, beginning, Second time” value ([6]; Dosage 50 (mg/ml))?
A: The value was 18.3 g.

Q: What about the “Body weight … end, Second time” value ([6]; Dosage 50 (mg/ml)) of the same compound?
A: The value was 25.3 g.

Q: And the “Inhibition rate, Second time” value ([6]; Dosage 50 (mg/ml))?
A: The value was 31.11%.

Q: What about the “Weight of the tumor X ± SD, Second time” value ([6]; Dosage 50, ip × 10qd) of the same compound?
A: Its value is 1.86 ± 0.28 g.

Q: What about the “Body weight of the animals, beginning, First time” value ([6]; Dosage 100 (mg/ml)) of the same compound?
A: The value was 19.0 g.

Q: What about the “Body weight … end, First time” value ([6]; Dosage 100 (mg/ml)) of the same compound?
A: The value was 24.5 g.

Q: What about the “Inhibition rate, First time” value ([6]; Dosage 100 (mg/ml)) of the same compound?
A: Its value is 43.07%.

Q: And the “Weight of the tumor X ± SD, First time” value ([6]; Dosage 100 (mg/ml))?
A: Its value is 1.52 ± 0.15 g.

Q: And the “Body weight of the animals, beginning, Second time” value ([6]; Dosage 100 (mg/ml))?
A: Its value is 18.7 g.

Q: And the “Body weight … end, Second time” value ([6]; Dosage 100 (mg/ml))?
A: The value was 25.5 g.

Q: What about the “Inhibition rate, Second time” value ([6]; Dosage 100 (mg/ml)) of the same compound?
A: The value was 40.00%.

Q: And the “Weight of the tumor X ± SD, Second time” value ([6]; Dosage 100, ip × 10qd)?
A: Its value is 1.62 ± 0.12 g.

Q: And the “Inhibition rate (%) S180 sarcomata” value ([6]; comparison table 43, in vivo)?
A: Its value is 43.07%.

Q: What about the IC50 [7] of the same compound?
A: The IC50 was 90 µM.

Q: And the IC50 [8]?
A: The IC50 was 120 µM.

Q: What about the IC50 [9] of the same compound?
A: The IC50 was 10 µM.

Q: What about the MTD at 2 weeks [10] of the same compound?
A: The MTD at 2 weeks was over 300 mg/kg.

Q: And the ΔTm ([11]; CT-DNA 15 ug/ml, PE buffer pH 7.6)?
A: Its ΔTm is −1.5 °C.

Q: And the ΔTm ([11]; CT-DNA thermal denaturation)?
A: Its ΔTm is −1.5 °C.

Q: And the IC50 [12]?
A: The IC50 was 60 µM.

Q: What about the Death rate ([13]; 50% male 50% female mice, 240 mg/kg) of the same compound?
A: The Death rate was 0.

Q: And the Death rate ([13]; 50% male 50% female mice, 300 mg/kg)?
A: Its Death rate is 30.

Q: What about the Death rate ([13]; female mice, 240 mg/kg) of the same compound?
A: The Death rate was 0.

Q: What about the Death rate ([13]; female mice, 300 mg/kg) of the same compound?
A: Its Death rate is 40.

Q: And the Death rate ([13]; male mice, 240 mg/kg)?
A: Its Death rate is 0.

Q: And the Death rate ([13]; male mice, 300 mg/kg)?
A: The Death rate was 20.
